# Results from ChEMBL document CHEMBL2069188, “Structural requirements for the antitubercular quaternized triflupromazine pharmacophore” (Bioorg Med Chem Lett, 2012).
# What was measured:
# [1] = Selectivity index, ratio of IC50 for african green monkey Vero cells to MIC for Mycobacterium tuberculosis H37Rv; type: functional
# [2] = test system: Mycobacterium tuberculosis; test: Antitubercular activity against Mycobacterium tuberculosis H37Rv by microplate alamar blue assay; type: functional
# [3] = test system: Vero; test: Cytotoxicity against african green monkey Vero cells […] after 3 days; type: cell-based; details: Chlorocebus sabaeus, 72 h
SMILES,Selectivity Index [1],MIC90 [2] [µM],IC50 [3] [µM]
C[N+](C)(CCCN1c2ccccc2Sc2ccc(C(F)(F)F)cc21)Cc1ccc(Br)cc1.[Br-],>21,6,> 128
C[N+](C)(CCCN1c2ccccc2Sc2ccc(C(F)(F)F)cc21)Cc1ccc(I)cc1.[Br-],>16,5.9,92.7
FC(F)(F)c1ccc2c(c1)N(Cc1cn(Cc3ccc(Cl)cc3)nn1)c1ccccc1S2,–,> 100,> 128
CCCC[N+](C)(C)CCCN1c2ccccc2Sc2ccc(C(F)(F)F)cc21,–,53.2,–
C#CC[N+](C)(C)CCCN1c2ccccc2Sc2ccc(C(F)(F)F)cc21,–,121,–
C[N+](C)(CC#N)CCCN1c2ccccc2Sc2ccc(C(F)(F)F)cc21,–,> 128,–
C=CC[N+](C)(C)CCCN1c2ccccc2Sc2ccc(C(F)(F)F)cc21,–,> 128,–
C=CC[N+](C)(C)CCCN1c2ccccc2Sc2ccccc21,–,> 128,–
C#CC[N+](C)(C)CCCN1c2ccccc2Sc2ccccc21,–,> 128,–
C[N+](C)(CCCN1c2ccccc2Sc2ccc(C(F)(F)F)cc21)Cc1ccc(F)cc1.[Cl-],>11,11.9,> 128
C[N+](C)(CCCN1c2ccccc2Sc2ccc(C(F)(F)F)cc21)Cc1ccc(Cl)cc1.[Cl-],>14,9,> 128
CO[C@H]1/C=C/O[C@@]2(C)Oc3c(C)c(O)c4c(O)c(c(/C=N/N5CCN(C)CC5)c(O)c4c3C2=O)NC(=O)/C(C)=C\C=C\[C@H](C)[C@H](O)[C@@H](C)[C@@H](O)[C@@H](C)[C@H](OC(C)=O)[C@@H]1C [RIFAMPIN],>909,0.09,> 100
